The source of these data is the supplement of paper PMC7108870.

In experiment [1] the test system is HEK293sieSTAT3(wt). The experiment in a line: drug sensitivity score (DSS), cytotoxicity CellTox Green (DSS (dimensionless)); higher = more cytotoxic; extreme values may be limits of the assay. The note with it: 72 h; STAT3 variant: wild type. A digest of the protocol: (§1)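 HEK293 cells with a STAT3-dependent luciferase reporter, overexpressing either wild-type or mutant STAT3, were dispensed (20 μl at 100,000 cells/ml) into 384-well plates holding compounds acoustically pre-plated at 5 concentrations in 10-fold dilutions. The plates were kept for 72 hours at 37°C and 5% CO2, then CellTox Green fluorescence (485/520 nm) followed by CellTiter-Glo luminescence was read on a PHERAstar FS. Breeze was used to compute a drug sensitivity score from the dose-response curve area after normalisation to negative and positive control wells, and each value comes from one representative of two experiments.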

For experiment [2], the system named is HEK293sieSTAT3(Y640F). The description is as above. Conditions: 72 h; STAT3 variant: Y640F (constitutively active). A digest of the protocol:
as §1

For experiment [3], the system named is HEK293sieSTAT3(wt). Briefly: drug sensitivity score (DSS), viability CellTiter-Glo (DSS (dimensionless)); higher = more growth inhibition; extreme values may be limits of the assay. The note with it: 72 h; STAT3 variant: wild type. A digest of the protocol:
as §1
Background: ATP-based viability assays read luminescence as a measure of living cells.

Experiment [4] concerns HEK293sieSTAT3(Y640F). The experiment is described as above. The note with it: 72 h; STAT3 variant: Y640F (constitutively active). A digest of the protocol:
as §1

As for `CC(C)n1nc(-c2ccc3oc(N)nc3c2)c2c(N)ncnc21` [MLN-0128] (top concentration tested 1000 nM), the drug sensitivity score in the experiment with HEK293sieSTAT3(wt) [1] stood at 1.73; in the experiment with HEK293sieSTAT3(Y640F) [2], 0; in the experiment with HEK293sieSTAT3(wt) [3] it was 18.7; in the experiment with HEK293sieSTAT3(Y640F) [4] it was 15.

Take `O=C(O)c1ccc(Nc2ncc3c(n2)-c2ccc(Cl)cc2C(c2c(F)cccc2F)=NC3)cc1` [MLN-8054] (top concentration tested 10000 nM): the drug sensitivity score in the experiment on HEK293sieSTAT3(wt) [1] was determined as 2.73; in the experiment on HEK293sieSTAT3(Y640F) [2], 0; in the experiment on HEK293sieSTAT3(wt) [3], 11; in the experiment on HEK293sieSTAT3(Y640F) [4], 6.2.

As to `O=C(Nc1cccc(NC(=O)c2cccc(O)c2O)c1)c1cccc(O)c1O` [MST-312] (top concentration tested 10000 nM), the drug sensitivity score in the experiment on HEK293sieSTAT3(wt) [1] was 6.46; in the experiment on HEK293sieSTAT3(Y640F) [2] it was 1.09; in the experiment with HEK293sieSTAT3(wt) [3], 13.2; in the experiment on HEK293sieSTAT3(Y640F) [4] it was 6.74.

Regarding `CNC(=O)[C@@H](NC(=O)[C@H](CC(C)C)[C@H](O)C(=O)NO)C(C)(C)C` [Marimastat] (top concentration tested 10000 nM), the drug sensitivity score was found to be 0 with HEK293sieSTAT3(wt) [1], 0 in the experiment with HEK293sieSTAT3(Y640F) [2], 1.16 in the experiment on HEK293sieSTAT3(wt) [3] and 1.16 in the experiment with HEK293sieSTAT3(Y640F) [4].

As to `Cc1ccc(NC(=O)c2ccc(CN3CCN(C)CC3)cc2)cc1Nc1nc(-c2cccnc2)cs1` [Masitinib] (top concentration tested 10000 nM), the drug sensitivity score amounted to 5.99 in the experiment with HEK293sieSTAT3(wt) [1], 0.7 with HEK293sieSTAT3(Y640F) [2], 7.57 in the experiment with HEK293sieSTAT3(wt) [3] and 4.59 in the experiment on HEK293sieSTAT3(Y640F) [4].

`CC(=O)O[C@]1(C(C)=O)CC[C@H]2[C@@H]3C=C(C)C4=CC(=O)CC[C@]4(C)[C@H]3CC[C@@]21C` [Megestrol acetate] (top concentration tested 10000 nM): the drug sensitivity score amounted to 0 in the experiment on HEK293sieSTAT3(wt) [1], 0 in the experiment on HEK293sieSTAT3(Y640F) [2], 0.97 in the experiment on HEK293sieSTAT3(wt) [3] and 3.65 in the experiment with HEK293sieSTAT3(Y640F) [4].

As to `N[C@@H](Cc1ccc(N(CCCl)CCCl)cc1)C(=O)O` [Melphalan] (top concentration tested 12500 nM), the drug sensitivity score with HEK293sieSTAT3(wt) [1] amounted to 0; in the experiment on HEK293sieSTAT3(Y640F) [2] it was 0; in the experiment with HEK293sieSTAT3(wt) [3], 0; in the experiment on HEK293sieSTAT3(Y640F) [4], 1.69.

`CCN(CC)CCCC(C)Nc1c2ccc(Cl)cc2nc2ccc(OC)cc12` (configuration not stated) [Mepacrine] (top concentration tested 50000 nM): the drug sensitivity score with HEK293sieSTAT3(wt) [1] turned out to be 19.7; in the experiment on HEK293sieSTAT3(Y640F) [2], 18.1; with HEK293sieSTAT3(wt) [3], 21.4; with HEK293sieSTAT3(Y640F) [4], 21.1.

Regarding `S=c1[nH]cnc2nc[nH]c12` [Mercaptopurine] (top concentration tested 10000 nM), the drug sensitivity score in the experiment with HEK293sieSTAT3(wt) [1] is 0; in the experiment on HEK293sieSTAT3(Y640F) [2], 0; with HEK293sieSTAT3(wt) [3], 7.64; with HEK293sieSTAT3(Y640F) [4], 7.54.

For the molecule `Cc1ccc(C(=O)Nc2ccc(Oc3cc4cnn(C)c4cc3-c3cn[nH]c3)c(F)c2)c(=O)n1-c1ccc(F)cc1` [Merestinib] (top concentration tested 1000 nM), the drug sensitivity score in the experiment with HEK293sieSTAT3(wt) [1] was found to be 0; with HEK293sieSTAT3(Y640F) [2], 0; in the experiment on HEK293sieSTAT3(wt) [3], 1.38; in the experiment on HEK293sieSTAT3(Y640F) [4] it was 4.06.

Consider `CN(C)C(=N)NC(=N)N` [Metformin] (top concentration tested 100000 nM), for which the drug sensitivity score was determined as 2.32 in the experiment with HEK293sieSTAT3(wt) [1], 0 with HEK293sieSTAT3(Y640F) [2], 2.41 in the experiment on HEK293sieSTAT3(wt) [3] and 0.22 in the experiment on HEK293sieSTAT3(Y640F) [4].

`CN(Cc1cnc2nc(N)nc(N)c2n1)c1ccc(C(=O)N[C@@H](CCC(=O)O)C(=O)O)cc1` [Methotrexate] (top concentration tested 5000 nM): the drug sensitivity score in the experiment on HEK293sieSTAT3(wt) [1] worked out at 1.17; in the experiment on HEK293sieSTAT3(Y640F) [2], 0; in the experiment with HEK293sieSTAT3(wt) [3] it was 17; in the experiment with HEK293sieSTAT3(Y640F) [4], 26.1.

Turning to `C[C@H]1C[C@@H]2[C@H]([C@@H](O)C[C@@]3(C)[C@H]2CC[C@]3(O)C(=O)CO)[C@@]2(C)C=CC(=O)C=C12` [Methylprednisolone] (top concentration tested 10000 nM), the drug sensitivity score in the experiment with HEK293sieSTAT3(wt) [1] was determined as 0; in the experiment with HEK293sieSTAT3(Y640F) [2], 0; with HEK293sieSTAT3(wt) [3] it was 1.52; in the experiment with HEK293sieSTAT3(Y640F) [4] it was 2.04.

In the case of `CO[C@@H]1[C@H](N(C)C(=O)c2ccccc2)C[C@H]2O[C@]1(C)n1c3ccccc3c3c4c(c5c6ccccc6n2c5c31)C(=O)NC4` [Midostaurin] (top concentration tested 10000 nM), the drug sensitivity score was 2.79 in the experiment on HEK293sieSTAT3(wt) [1], 0 with HEK293sieSTAT3(Y640F) [2], 4.05 in the experiment with HEK293sieSTAT3(wt) [3] and 5.01 in the experiment with HEK293sieSTAT3(Y640F) [4].

Consider `CNC(=O)c1nn(C)c2c1C(C)(C)Cc1cnc(Nc3ccc(N4CCN(C)CC4)cc3)nc1-2` [Milciclib] (top concentration tested 10000 nM), for which the drug sensitivity score in the experiment on HEK293sieSTAT3(wt) [1] came out at 7.5; with HEK293sieSTAT3(Y640F) [2], 1; in the experiment with HEK293sieSTAT3(wt) [3], 15; in the experiment on HEK293sieSTAT3(Y640F) [4] it was 11.2.

On to `CO[C@@]12[C@H](COC(N)=O)C3=C(C(=O)C(C)=C(N)C3=O)N1C[C@@H]1N[C@@H]12` [Mitomycin C] (top concentration tested 10000 nM), for which the drug sensitivity score turned out to be 1.95 in the experiment with HEK293sieSTAT3(wt) [1], 0.86 in the experiment on HEK293sieSTAT3(Y640F) [2], 5.72 in the experiment with HEK293sieSTAT3(wt) [3] and 14.5 in the experiment on HEK293sieSTAT3(Y640F) [4].

Take `Clc1ccc(C(c2ccccc2Cl)C(Cl)Cl)cc1` (configuration not stated) [Mitotane] (top concentration tested 10000 nM): the drug sensitivity score with HEK293sieSTAT3(wt) [1], in the experiment on HEK293sieSTAT3(Y640F) [2], with HEK293sieSTAT3(wt) [3] and in the experiment with HEK293sieSTAT3(Y640F) [4] was 0 throughout.

As for `O=C1c2c(O)ccc(O)c2C(=O)c2c(NCCNCCO)ccc(NCCNCCO)c21` [Mitoxantrone] (top concentration tested 1000 nM), the drug sensitivity score was found to be 0.93 in the experiment on HEK293sieSTAT3(wt) [1], 0.1 in the experiment on HEK293sieSTAT3(Y640F) [2], 9.78 in the experiment with HEK293sieSTAT3(wt) [3] and 10.6 with HEK293sieSTAT3(Y640F) [4].

Consider `Nc1ccccc1NC(=O)c1ccc(CNc2nccc(-c3cccnc3)n2)cc1` [Mocetinostat] (top concentration tested 10000 nM), for which the drug sensitivity score in the experiment on HEK293sieSTAT3(wt) [1] was found to be 6.57; in the experiment with HEK293sieSTAT3(Y640F) [2], 2.68; in the experiment on HEK293sieSTAT3(wt) [3], 13.1; in the experiment with HEK293sieSTAT3(Y640F) [4], 11.5.

With `N#CCNC(=O)c1ccc(-c2ccnc(Nc3ccc(N4CCOCC4)cc3)n2)cc1` [Momelotinib] (top concentration tested 10000 nM), the drug sensitivity score was 5.09 in the experiment with HEK293sieSTAT3(wt) [1], 3.84 in the experiment on HEK293sieSTAT3(Y640F) [2], 5.53 in the experiment on HEK293sieSTAT3(wt) [3] and 7.37 with HEK293sieSTAT3(Y640F) [4].

Take `CC1(C)CNc2cc(NC(=O)c3cccnc3NCc3ccncc3)ccc21` [Motesanib] (top concentration tested 10000 nM): the drug sensitivity score was 0.6 in the experiment with HEK293sieSTAT3(wt) [1], 0.35 with HEK293sieSTAT3(Y640F) [2], 1.53 with HEK293sieSTAT3(wt) [3] and 2.6 with HEK293sieSTAT3(Y640F) [4].

For the molecule `FC(F)(F)c1ccc(/C=C/c2nc(COc3ccc(CCCCn4ccnn4)cc3)co2)cc1` [Mubritinib] (top concentration tested 1000 nM), the drug sensitivity score in the experiment with HEK293sieSTAT3(wt) [1] was determined as 0.57; in the experiment with HEK293sieSTAT3(Y640F) [2] it was 0; in the experiment on HEK293sieSTAT3(wt) [3], 5.94; with HEK293sieSTAT3(Y640F) [4], 8.41.

Consider `Cc1cc(OCc2nnc(SC3CCCC3)n2-c2cccnc2)ccc1-c1ccc(S(C)(=O)=O)cc1` [NMS-873] (top concentration tested 10000 nM), for which the drug sensitivity score with HEK293sieSTAT3(wt) [1] was determined as 7.29; in the experiment on HEK293sieSTAT3(Y640F) [2], 6.39; in the experiment with HEK293sieSTAT3(wt) [3], 12.5; with HEK293sieSTAT3(Y640F) [4] it was 11.8.
